Laboratory results from US4784999A, “Novel treatment” (Beecham Wuelfing GmbH & Co. KG, priority 1986, dated 1988).

Key:
[1] = test system: Triethyltin-induced cerebral oedema; assay: Triethyltin-induced cerebral oedema in the rat; type: in vivo; conditions: 2×50 mg/kg orally, twice daily for 5 days of triethyltin intoxication; Wistar rats; brain water content; p<0.05 (student's t-test)
Description: The cerebral oedema is induced by oral administrations repeated for 5 consecutive days--one administration per day--of triethyltin chloride at a dose of 2 mg/kg. The test compound is also administered orally twice daily as aqueous solution or suspension at a dose of 1 ml/100 g body-weight; these administrations are given during the 5 days of intoxication with tin. Three groups of 10 male specific pathogen-free (SPF) Wistar rats of 280±10 g body-weight are used:
1 group intoxicated with triethyltin
1 group intoxicated with triethyltin and treated with the studied compound The rats are killed on the evening of the fifth day; the brain is removed, weighed fresh and after desiccation to constant weight and the water content of each brain is calculated [H2 O]=fresh weight-dry weight.
The following are then calculated the mean water content (M+Sm %) of each group; the protection index P due to the administered compound: [formula]

[2] = test system: recall latency in the gerbil following transient forebrain ischaemia; assay: Gerbil Ischaemic Deficit Passive Avoidance Test; type: in vivo, Mongolian gerbils; conditions: Ischaemia and Test Compound, 10 mg/kg p.o., seven administrations; gerbils after 5 min bilateral carotid ligation; significantly different from ischaemic controls (p<0.05)
Description: Mongolian gerbils were conditioned to avoid entering a dark compartment by means of a footshock (maximally 50 V, 2 s duration) received when entering from the light section of a two compartment box. Recollection of the footshock was examined 24 h later by replacing the gerbils in the two compartment box and measuring the recall latency, the time taken to re-enter the dark compartment.
A learning or memory deficit was induced in the gerbils by a transient (5 min) bilateral carotid artery ligation, performed 24 h prior to conditioning, under light hexobarbital anaesthesia.
Compounds, being examined for an effect on learning or memory in gerbils which had undergone carotid occlusion, were administered seven times during the experiment The initial administration was during the period of forebrain ischaemia, the third and seventh administrations were 10 min prior to conditioning and recall testing, respectively, and the remainder were given at intermediate time points.
A long recall latency indicates good information acquisition or retrieval.

[3] = test system: rat ischaemic gastrocnemius muscle; assay: Oxygen tension (pO2) of rat ischaemic gastrocnemius muscle; type: in vivo; conditions: 0.5 mg/kg administered intravenously; ischaemic hindlimb gastrocnemius muscle, anaesthetized rats; n=12; p<0.01 signed rank test
[4] = target: cAMP phosphodiesterase of rat brain; assay: Inhibitory activity on cAMP phosphodiesterase of rat brain (Dixon plot); type: biochemical; conditions: homogenates of rat brain; 0.31 μM cyclic AMP as substrate; extrapolated from Dixon plot; read-out: apparent Ki
Description: The activity of cyclic AMP phosphodiesterase in homogenates of rat brain was measured in the presence of various concentrations of the compound 1,3-di-n-butyl-7-(2-oxypropyl)xanthine using 0.31 μM cyclic AMP as substration The reciprocal of the reaction rate was plotted on the y axis against each concentration of the compound on the x axis (Dixon plot). The apparent Ki value was estimated by extrapolating the steeper linear portion of the Dixon plot to the x axis and obtaining the negative intercept on the x axis.

CCCCn1c(=O)c2c(ncn2CC(C)=O)n(CCCC)c1=O [1,3-di-n-butyl-7-(2-oxypropyl)xanthine]
protection index P [1]: 65% | Percentage of animals with recall latencies >60s [2]: 36 | mean (±SEM) increase in pO2 [3]: 5.7±2.1 torr | Ki [4]: 64 µM
